From ChEMBL document CHEMBL1201862, “PubChem BioAssay data set” (2004)
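Method: 48-hour compound exposure of cells in 96-well plates, five concentrations, linear interpolation of endpoints. Abbreviation: GI50, concentration required for 50% inhibition of growth.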 The source made the active and inactive calls. No stated cut-off is given here; in the data, active = GI50 up to about 1.1 µM and inactive = higher.

What was measured:
Assay in all cases: growth of human tumour cells (NCI), 48 h
A498 = test system: A498
DMS-114 = test system: DMS-114
UACC-257 = test system: UACC-257
SNB-19 = test system: SNB-19
Malme-3M = test system: Malme-3M
ACHN = test system: ACHN
M14 = test system: M14
CAKI-1 = test system: CAKI-1
RXF 393 = test system: RXF 393
KM12 = test system: KM12
HCC 2998 = test system: HCC 2998
SK-MEL-2 = test system: SK-MEL-2
SR = test system: SR
SK-MEL-28 = test system: SK-MEL-28
786-0 = test system: 786-0
K562 = test system: K562
MOLT-4 = test system: MOLT-4
COLO 205 = test system: COLO 205
NCI-H522 = test system: NCI-H522
SNB-78 = test system: SNB-78
SF-268 = test system: SF-268
SN12C = test system: SN12C
SK-MEL-5 = test system: SK-MEL-5
CCRF-CEM = test system: CCRF-CEM
RXF 631 = test system: RXF 631
SK-OV-3 = test system: SK-OV-3
EKVX = test system: EKVX
RPMI-8226 = test system: RPMI-8226
LXFL 529 = test system: LXFL 529
HOP-18 = test system: HOP-18
TK-10 = test system: TK-10
DMS-273 = test system: DMS-273
OVCAR-3 = test system: OVCAR-3
OVCAR-4 = test system: OVCAR-4
HCT-116 = test system: HCT-116
NCI-H460 = test system: NCI-H460
SW-620 = test system: SW-620
HCT-15 = test system: HCT-15
HOP-62 = test system: HOP-62
A549 = test system: A549
M19-MEL = test system: M19-MEL
HL-60 = test system: HL-60
KM-20L2 = test system: KM-20L2
OVCAR-8 = test system: OVCAR-8
U-251 = test system: U-251
DLD-1 = test system: DLD-1
SNB-75 = test system: SNB-75
UO-31 = test system: UO-31
SF-539 = test system: SF-539
NCI-H226 = test system: NCI-H226
IGROV-1 = test system: IGROV-1

For `CC1=NNC(=O)C2CCC(=O)N12` (stereo unspecified), the GI50 (A498) was > 100 µM (inactive), the GI50 (DMS-114) was > 100 µM (inactive) and the GI50 (UACC-257) was > 100 µM (inactive). The GI50 (SNB-19) was > 100 µM (inactive), the GI50 (Malme-3M) was > 100 µM (inactive) and the GI50 (ACHN) was > 100 µM (inactive). For the same compound, the GI50 (M14) was > 100 µM (inactive), the GI50 (CAKI-1) was > 100 µM (inactive) and the GI50 (RXF 393) was > 100 µM (inactive). For the same compound, the GI50 (KM12) was > 100 µM (inactive), the GI50 (HCC 2998) was > 100 µM (inactive) and the GI50 (SK-MEL-2) was > 100 µM (inactive). The GI50 (SR) was > 100 µM (inactive), the GI50 (SK-MEL-28) was > 100 µM (inactive) and the GI50 (786-0) was > 100 µM (inactive). The GI50 (K562) was > 100 µM (inactive), the GI50 (MOLT-4) was > 100 µM (inactive) and the GI50 (COLO 205) was > 100 µM (inactive). For the same compound, the GI50 (NCI-H522) was > 100 µM (inactive), the GI50 (SNB-78) was > 100 µM (inactive) and the GI50 (SF-268) was > 100 µM (inactive). The GI50 (SN12C) was > 100 µM (inactive), the GI50 (SK-MEL-5) was > 100 µM (inactive) and the GI50 (CCRF-CEM) was > 100 µM (inactive). For the same compound, the GI50 (RXF 631) was > 100 µM (inactive), the GI50 (SK-OV-3) was > 100 µM (inactive) and the GI50 (EKVX) was > 100 µM (inactive). The GI50 (RPMI-8226) was > 100 µM (inactive), the GI50 (LXFL 529) was > 100 µM (inactive) and the GI50 (HOP-18) was > 100 µM (inactive). For the same compound, the GI50 (TK-10) was > 100 µM (inactive), the GI50 (DMS-273) was > 100 µM (inactive) and the GI50 (OVCAR-3) was > 100 µM (inactive). For the same compound, the GI50 (OVCAR-4) was > 100 µM (inactive), the GI50 (HCT-116) was > 100 µM (inactive) and the GI50 (NCI-H460) was > 100 µM (inactive). For the same compound, the GI50 (SW-620) was > 100 µM (inactive), the GI50 (HCT-15) was > 100 µM and the GI50 (HOP-62) was > 100 µM (inactive). For the same compound, the GI50 (A549) was > 100 µM (inactive), the GI50 (M19-MEL) was > 100 µM (inactive) and the GI50 (HL-60) was > 100 µM (inactive). For the same compound, the GI50 (KM-20L2) was 49.2 µM (inactive), the GI50 (OVCAR-8) was > 100 µM (inactive) and the GI50 (U-251) was > 100 µM (inactive). For the same compound, the GI50 (DLD-1) was > 100 µM (inactive), the GI50 (SNB-75) was > 100 µM (inactive) and the GI50 (UO-31) was > 100 µM (inactive). The GI50 (SF-539) was > 100 µM (inactive), the GI50 (NCI-H226) was > 100 µM (inactive) and the GI50 (IGROV-1) was > 100 µM (inactive).
